Here are results for 15 molecules from EP4745151A1, “FIBROBLAST ACTIVATION PROTEIN LIGAND AND USE THEREOF” (Jiangsu Hengrui Pharmaceuticals Co., Ltd., priority 2023, dated 2025).

The structures appear in SMILES notation. Read-outs that look alike come from different tables or passages of the source. Numbered stars: 1 amine (or outer) side, 2 acyl side, 3 side chain; on linkers, the order of the positions; unused ones are H or OH. Bridge positions count the residues as written; N and C are the ends. Square brackets hold non-standard residues; d marks the D form. Peptide text beside a SMILES is read from it. * marks the point of attachment. TBMB(SCH2CH2NH-DOTA) = O=C(O)CN1CCN(CC(=O)O)CCN(CC(=O)NCCSCc2cc(C[*:1])cc(C[*:2])c2)CCN(CC(=O)O)CC1; X1 = O=C(O)CN1CCN(CC(=O)O)CCN(CC(=O)NCCSCc2cc(C[*:1])cc(C[*:2])c2)CC1; Phe(2-CF3) = N[C@@H](Cc1ccccc1C(F)(F)F)C(=O)O; Pro(trans-4-F) = O=C(O)[C@@H]1C[C@@H](F)CN1; Phe(3-F) = N[C@@H](Cc1cccc(F)c1)C(=O)O; Phe(4-F) = N[C@@H](Cc1ccc(F)cc1)C(=O)O; Phe(2-F) = N[C@@H](Cc1ccccc1F)C(=O)O; Hyp = O=C(O)[C@@H]1C[C@@H](O)CN1; Hexanoyl = CCCCCC(=O)*; Aib = CC(C)(N)C(=O)O

The target of one series is T1, FAPα (Homo sapiens, UniProt Q12884).
T1 sequence (Q12884 1-760): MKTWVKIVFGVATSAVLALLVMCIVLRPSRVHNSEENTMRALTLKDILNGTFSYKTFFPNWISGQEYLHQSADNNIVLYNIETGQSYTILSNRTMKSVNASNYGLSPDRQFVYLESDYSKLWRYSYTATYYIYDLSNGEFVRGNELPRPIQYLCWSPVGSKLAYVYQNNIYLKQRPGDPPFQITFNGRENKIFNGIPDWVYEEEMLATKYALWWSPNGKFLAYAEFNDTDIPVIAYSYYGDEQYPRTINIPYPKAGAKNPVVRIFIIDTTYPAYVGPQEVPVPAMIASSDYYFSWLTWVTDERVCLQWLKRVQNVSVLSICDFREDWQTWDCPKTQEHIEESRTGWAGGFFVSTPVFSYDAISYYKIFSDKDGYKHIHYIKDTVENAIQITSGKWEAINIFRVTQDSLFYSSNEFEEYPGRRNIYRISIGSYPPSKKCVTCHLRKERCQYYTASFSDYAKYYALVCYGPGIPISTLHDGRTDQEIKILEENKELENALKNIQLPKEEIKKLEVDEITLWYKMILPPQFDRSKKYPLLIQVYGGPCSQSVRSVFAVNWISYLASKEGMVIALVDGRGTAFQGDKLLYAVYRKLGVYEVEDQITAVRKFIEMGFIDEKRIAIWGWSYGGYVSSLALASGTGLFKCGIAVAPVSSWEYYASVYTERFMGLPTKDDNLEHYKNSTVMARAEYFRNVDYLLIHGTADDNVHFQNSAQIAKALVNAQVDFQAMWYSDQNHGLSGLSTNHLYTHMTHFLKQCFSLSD
Nature of the series: FAPα enzyme activity test. Particulars: substrate Z-Gly-Pro-AMC, 37°C. It counts as biochemical. The method, then: The substrate (Z-Gly-Pro-AMC) was diluted with DMSO to prepare a 0.5 mM stock solution. Before each experiment, the 0.5 mM stock solution was diluted with PBS to 50 µM for later use. The FAPα protein was diluted with PBS to 0.5 ng/µl for later use. […] The test compounds and positive control were subjected to a 5-fold serial dilution with PBS to obtain 8 gradients for later use, with the highest concentration being 10 µM, and the lowest concentration being […]. Test method: 85 µl of the FAPα dilution and 10 µl of the compound dilution were added to a microplate, uniformly mixed and incubated at 37°C for 10 min. Then, 5 µl of 50 µM substrate was added, uniformly mixed and incubated at 37°C for 10 min. The microplate was read on a microplate reader, with an excitation wavelength of 380 nm and an emission wavelength of 465 nm.

Another series concerns U-87 MG cells. Particulars: mouse, in vivo; for Tumour/kidney: B-NDG, iv.
The next series can be described thus: in vivo. The following applies: B-NDG, mouse, iv, total radioactivity, Tumour/kidney.

Procedure for U-87 MG cells: (§1) Experimental animals: Germline: B-NDG (Biocytogen Jiangsu Co., Ltd.); Age: 5-8 weeks old; Body weight: 20-24 g.
(§2) A sufficient quantity of U-87 MG cells was prepared and inoculated into the posterior position of the right forelimb of B-NDG mice in an inoculation volume of 100 µl, containing 50% Matrigel and 5 × 10^6 cells. After inoculation, the tumour volume and animal body weight were monitored twice a week. Model mice with a tumour volume between 200 and 500 m^3 were selected for enrolment in this experiment and randomly grouped on the basis of tumour volume.
Procedure for in vivo: as §1, §2

Usually IC50 stands for the midpoint of a concentration-inhibition curve. Higher therefore signals weaker potency. In the case of `CCCCCC(=O)N[C@H]1CSCc2cc(CSCCNC(=O)CN3CCN(CC(=O)O)CCN(CC(=O)O)CCN(CC(=O)O)CC3)cc(c2)CSC[C@@H](C(=O)O)NC(=O)[C@H](Cc2ccccc2)NC(=O)[C@H](CCC(N)=O)NC(=O)[C@H]([C@@H](C)O)NC(=O)[C@@H]2C[C@@H](O)CN2C(=O)[C@@H]2CCCN2C(=O)C(C)(C)NC1=O` [DOTA-05] (Hexanoyl-C[Aib]P[Hyp]TQFC-OH; linker 1-8 via TBMB(SCH2CH2NH-DOTA)), inhibition on FAPα was half-maximal at 1.16 nM (IC50). In the case of `CCCCCC(=O)N[C@H]1CSCc2cc(CSCCNC(=O)CN3CCN(CC(=O)O)CCN(CC(=O)O)CC3)cc(c2)CSC[C@@H](C(=O)O)NC(=O)[C@H](Cc2ccccc2)NC(=O)[C@H](CCC(N)=O)NC(=O)[C@H]([C@@H](C)O)NC(=O)[C@@H]2CCCN2C(=O)[C@@H]2CCCN2C1=O` [Al^18F-NOTA-2286, reference compound], the Tumour/kidney in the series on U-87 MG cells (0.5 h) amounted to 2.57±0.09; with U-87 MG cells (1.5 h), 11.24±1.79; with U-87 MG cells (3 h) it was 10.06±1.60. Regarding `CCCCCC(=O)N[C@H]1CSCc2cc(CSCCNC(=O)CN3CCN(CC(=O)O)CCN(CC(=O)O)CC3)cc(c2)CSC[C@@H](C(=O)O)NC(=O)[C@H](Cc2ccccc2)NC(=O)[C@H](CCC(N)=O)NC(=O)[C@H]([C@@H](C)O)NC(=O)[C@@H]2C[C@@H](O)CN2C(=O)[C@@H]2CCCN2C(=O)C(C)(C)NC1=O` [NOTA-05] (Hexanoyl-C[Aib]P[Hyp]TQFC-OH; linker 1-8 via X1), on FAPα, the IC50 stood at 0.45 nM. Same read-out and setting: under `CCCCCC(=O)N[C@H]1CSCc2cc(CSCCNC(=O)CN3CCN(CC(=O)O)CCN(CC(=O)O)CC3)cc(c2)CSC[C@@H](C(=O)O)NC(=O)[C@H](Cc2ccccc2F)NC(=O)[C@H](CCC(N)=O)NC(=O)[C@H]([C@@H](C)O)NC(=O)[C@@H]2C[C@@H](O)CN2C(=O)[C@@H]2CCCN2C(=O)C(C)(C)NC1=O` [NOTA-06] (Hexanoyl-C[Aib]P[Hyp]TQ[Phe(2-F)]C-OH; linker 1-8 via X1) stands 0.088 nM; under `CCCCCC(=O)N[C@H]1CSCc2cc(CSCCNC(=O)CN3CCN(CC(=O)O)CCN(CC(=O)O)CCN(CC(=O)O)CC3)cc(c2)CSC[C@@H](C(=O)O)NC(=O)[C@H](Cc2ccccc2)NC(=O)[C@H](CCC(N)=O)NC(=O)[C@H]([C@@H](C)O)NC(=O)[C@@H]2C[C@@H](F)CN2C(=O)[C@@H]2CCCN2C(=O)C(C)(C)NC1=O` [DOTA-12] (Hexanoyl-C[Aib]P[Pro(trans-4-F)]TQFC-OH; linker 1-8 via TBMB(SCH2CH2NH-DOTA)), 1.08 nM.

Take `CCCCCC(=O)N[C@H]1CSCc2cc(CSCCNC(=O)CN3CCN(CC(=O)O)CCN(CC(=O)O)CC3)cc(c2)CSC[C@@H](C(=O)O)NC(=O)[C@H](Cc2ccccc2)NC(=O)[C@H](CCC(N)=O)NC(=O)[C@H]([C@@H](C)O)NC(=O)[C@@H]2CCCN2C(=O)[C@@H]2CCCN2C1=O` [^68Ga-NOTA-2286, metal not drawn, reference compound]: the values for the Tumour/kidney in the series on U-87 MG cells (1.5 h) and in the series on U-87 MG cells (3 h) were 1.77±0.31 and 2.43±1.04, respectively. The tissue to tissue ratio at 0.5 h in “in vivo” was determined as 1.59 ± 0.55. `CCCCCC(=O)N[C@H]1CSCc2cc(CSCCNC(=O)CN3CCN(CC(=O)O)CCN(CC(=O)O)CCN(CC(=O)O)CC3)cc(c2)CSC[C@@H](C(=O)O)NC(=O)[C@H](Cc2ccccc2)NC(=O)[C@H](CCC(N)=O)NC(=O)[C@H]([C@@H](C)O)NC(=O)[C@@H]2CCCN2C(=O)[C@@H]2CCCN2C1=O` [FAP-2286, reference compound] registered an IC50 at FAPα of 11.7 nM. `CCCCCC(=O)N[C@H]1CSCc2cc(CSCCNC(=O)CN3CCN(CC(=O)O)CCN(CC(=O)O)CCN(CC(=O)O)CC3)cc(c2)CSC[C@@H](C(=O)O)NC(=O)[C@H](Cc2ccccc2F)NC(=O)[C@H](CCC(N)=O)NC(=O)[C@H]([C@@H](C)O)NC(=O)[C@@H]2C[C@@H](O)CN2C(=O)[C@@H]2CCCN2C(=O)C(C)(C)NC1=O` [DOTA-06] (Hexanoyl-C[Aib]P[Hyp]TQ[Phe(2-F)]C-OH; linker 1-8 via TBMB(SCH2CH2NH-DOTA)): on FAPα, 0.93 nM corresponded to half-maximal inhibition (IC50). As to `CCCCCC(=O)N[C@H]1CSCc2cc(CSCCNC(=O)CN3CCN(CC(=O)O)CCN(CC(=O)O)CC3)cc(c2)CSC[C@@H](C(=O)O)NC(=O)[C@H](Cc2ccccc2)NC(=O)[C@H](CCC(N)=O)NC(=O)[C@H]([C@@H](C)O)NC(=O)[C@@H]2CCCN2C(=O)[C@@H]2CCCN2C1=O` [NOTA-2286, reference compound], the IC50 at FAPα turned out to be 0.59 nM.

Take `CCCCCC(=O)N[C@H]1CSCc2cc(CSCCNC(=O)CN3CCN(CC(=O)O)CCN(CC(=O)O)CCN(CC(=O)O)CC3)cc(c2)CSC[C@@H](C(=O)O)NC(=O)[C@H](Cc2cccc(F)c2)NC(=O)[C@H](CCC(N)=O)NC(=O)[C@H]([C@@H](C)O)NC(=O)[C@@H]2C[C@@H](O)CN2C(=O)[C@@H]2CCCN2C(=O)C(C)(C)NC1=O` [DOTA-07] (Hexanoyl-C[Aib]P[Hyp]TQ[Phe(3-F)]C-OH; linker 1-8 via TBMB(SCH2CH2NH-DOTA)): half-maximal inhibition against FAPα (IC50) required 1.5 nM. Regarding `CCCCCC(=O)N[C@H]1CSCc2cc(CSCCNC(=O)CN3CCN(CC(=O)O)CCN(CC(=O)O)CCN(CC(=O)O)CC3)cc(c2)CSC[C@@H](C(=O)O)NC(=O)[C@H](Cc2ccccc2)NC(=O)[C@H](CCC(N)=O)NC(=O)[C@H]([C@@H](C)O)NC(=O)[C@@H]2CCCN2C(=O)[C@@H]2CCCN2C1=O` [^68Ga-FAP-2286, metal not drawn], in the series “in vivo”, the tissue to tissue ratio at 1 h is 1.56 ± 0.11 and the tissue to tissue ratio at 3 h stood at 0.87 ± 0.14. The molecule `CCCCCC(=O)N[C@H]1CSCc2cc(CSCCNC(=O)CN3CCN(CC(=O)O)CCN(CC(=O)O)CCN(CC(=O)O)CC3)cc(c2)CSC[C@@H](C(=O)O)NC(=O)[C@H](Cc2ccccc2C(F)(F)F)NC(=O)[C@H](CCC(N)=O)NC(=O)[C@H]([C@@H](C)O)NC(=O)[C@@H]2C[C@@H](O)CN2C(=O)[C@@H]2CCCN2C(=O)C(C)(C)NC1=O` [DOTA-09] (Hexanoyl-C[Aib]P[Hyp]TQ[Phe(2-CF3)]C-OH; linker 1-8 via TBMB(SCH2CH2NH-DOTA)) returned an IC50 against FAPα of 0.28 nM. `CCCCCC(=O)N[C@H]1CSCc2cc(CSCCNC(=O)CN3CCN(CC(=O)O)CCN(CC(=O)O)CCN(CC(=O)O)CC3)cc(c2)CSC[C@@H](C(=O)O)NC(=O)[C@H](Cc2ccccc2F)NC(=O)[C@H](CCC(N)=O)NC(=O)[C@H]([C@@H](C)O)NC(=O)[C@@H]2C[C@@H](F)CN2C(=O)[C@@H]2CCCN2C(=O)C(C)(C)NC1=O` [DOTA-13] (Hexanoyl-C[Aib]P[Pro(trans-4-F)]TQ[Phe(2-F)]C-OH; linker 1-8 via TBMB(SCH2CH2NH-DOTA)) had an IC50 against FAPα of 1.09 nM.

For `CCCCCC(=O)N[C@H]1CSCc2cc(CSCCNC(=O)CN3CCN(CC(=O)O)CCN(CC(=O)O)CCN(CC(=O)O)CC3)cc(c2)CSC[C@@H](C(=O)O)NC(=O)[C@H](Cc2ccccc2C(F)(F)F)NC(=O)[C@H](CCC(N)=O)NC(=O)[C@H]([C@@H](C)O)NC(=O)[C@@H]2C[C@@H](O)CN2C(=O)[C@@H]2CCCN2C(=O)C(C)(C)NC1=O` [^68Ga-DOTA-09, metal not drawn] (Hexanoyl-C[Aib]P[Hyp]TQ[Phe(2-CF3)]C-OH; linker 1-8 via TBMB(SCH2CH2NH-DOTA)), in the series on U-87 MG cells, the “tumour uptake compared with control” value is “significantly higher”, the “tumour/kidney ratio compared with control” value is given as “significantly higher” and the “tumour/kidney uptake ratio compared with control” value was “significantly higher”. For the same molecule, in “in vivo”, the tissue to tissue ratio at 0.5 h worked out at 2.81 ± 0.21 and the tissue to tissue ratio at 1.5 h is 5.34 ± 0.92. Molecule `CCCCCC(=O)N[C@H]1CSCc2cc(CSCCNC(=O)CN3CCN(CC(=O)O)CCN(CC(=O)O)CCN(CC(=O)O)CC3)cc(c2)CSC[C@@H](C(=O)O)NC(=O)[C@H](Cc2ccc(F)cc2)NC(=O)[C@H](CCC(N)=O)NC(=O)[C@H]([C@@H](C)O)NC(=O)[C@@H]2C[C@@H](O)CN2C(=O)[C@@H]2CCCN2C(=O)C(C)(C)NC1=O` [DOTA-08] (Hexanoyl-C[Aib]P[Hyp]TQ[Phe(4-F)]C-OH; linker 1-8 via TBMB(SCH2CH2NH-DOTA)) displayed an IC50 against FAPα of 0.53 nM.
